In a compilation of properties of binary mixtures (doi:10.1016/j.molliq.2021.116463):

Test: xn = mol fraction of the nth substance listed
Conditions: 100 kPa

[Cl-].c1c[nH+]c[nH]1 + OCC(O)CO
viscosity [mPa·s]
Conditions	293.2 K	303.2 K	313.2 K	323.2 K	333.2 K	343.2 K	353.2 K
x1 = 0.1667	565	397	–	196	149.3	127.7	116.4
x1 = 0.25	429	294	207	–	60.9	37.7	24.8
x1 = 0.3333	321	219	–	–	49.6	31.2	20.6
x1 = 0.5	472	355	285	141.2	–	–	38.2
